Series [1] relates to myeloid cell line derived from MUTZ-3.
Series [2] shares this test system. The source holds these as a separate data set.
The test system is the same in series [3]. The series can be described thus: GARD random forest model predicting CLP categories (52 transcripts, Example A). Particulars: test set; for GARD predicted CLP: majority voting across replicates; for predicted CLP: separate replicates.
The test system is the same in series [4]. The series can be described thus: GARD binary classification (SVM on GARD prediction signature, 200 transcripts). Particulars: SVM, median calibrated decision value of replicates >0 = sensitizer.
The test system is the same in series [5]. The series can be described thus: Cytotoxicity / viability by flow cytometry (propidium iodide), 24 hours exposure. Particulars: yes/no; MUTZ-3 derived cells. A general note: In flow cytometry, cells or beads pass a laser one at a time.
The test system is the same in series [6]. This is another data set of the same source.
The conditions of series [7]: cited from earlier work; for binary class: sens / non-sens; for true CLP: test set.
The conditions of series [8]: cited from earlier work; for binary class (HP*): based on human potency [41] where available, otherwise according to CLP; for HP: human potency, chemicals of random forest training and test set; for Human potency [41]: test set.
[9] abbreviates: CLP annotation of 37 novel chemicals.
Where [10] appears, read: chemicals of random forest training and test set.

Each structure is given as a SMILES string. Where “and” joins values, the source holds several entries; their conditions need not be identical. Equal entries are not always repeated. Where two headings read alike, the source gives them in different places.

In the case of `CCCCC/C(=C/c1ccccc1)CO` [amylcinnamyl alcohol], the GARD binary prediction result in series [1] is given as “S”. Further, the cytotox entry in series [2] is “yes”.

On to `Nc1ccccc1` [aniline], for which the “GARD binary classification relative to cut-off defined by benchmark samples” value in series [1] is listed as “close to the cut-off”.

As to `O=C(OCc1ccccc1)c1ccccc1` [benzyl benzoate], in series [3], the “GARD predicted CLP” value was 1B and the “predicted CLP” value is reported as 1B. Also, the GARD binary prediction entry in series [4] was “S”. Further, the cytotox result in series [5] was “yes”.

Regarding `CC(C)(c1ccc(OCC2CO2)cc1)c1ccc(OCC2CO2)cc1` (stereo not drawn) [bisphenol A-diglycidyl ether], in series [3], the “GARD predicted CLP” value is listed as 1A and the “predicted CLP” value is 1A. Also, the GARD binary prediction result in series [1] is “S”.

In the case of `CCCCOCC1CO1` (stereo not drawn) [butyl glycidyl ether], in series [1], the “GARD binary classification relative to cut-off defined by benchmark samples” value is “close to the cut-off”. Besides, the “GARD predicted CLP” value in series [6] (human, 24 h) is given as 1A. Moreover, the cytotox entry in series [2] is “yes”.

On to `CCOc1cc(C=O)ccc1O` [ethyl vanillin], for which, in series [6], the “GARD predicted CLP” value is “no cat” and the “predicted CLP” value was “no cat”. Further, the “predicted CLP” value in series [6] (human, 24 h) is on record as 1B.

For `O=CCCCC=O` [glutaraldehyde], in series [7] (setting [9]), the CLP is recorded as 1A. For the same compound, the CLP in series [7] (Table 10, chemicals test set 1) is listed as 1A. In addition, in series [7] (setting [10]), the CLP was 1A and the binary class result is “sens”. Further, the “true CLP” value in series [7] (per replicate line) is 1A. Moreover, the “true CLP” value in series [7] is listed as 1A. In series [3], the “GARD predicted CLP” value is given as 1A and the “predicted CLP” value is on record as 1A. In series [8], the “binary class (HP*)” value is listed as “S (HP 1-4 = S)”, the HP is reported as 2 and the “Human potency [41]” value is given as 2. Besides, the GARD binary prediction entry in series [4] was “S”. The cytotox entry in series [5] is “yes”.

Consider `C=CC(C)(O)CCC=C(C)C` (stereo not drawn) [linalool], for which the CLP in series [7] (setting [9]) is recorded as 1B. The CLP in series [7] (Table 10, chemicals test set 1) is on record as 1B. In series [7] (setting [10]), the CLP is 1B and the binary class entry was “sens”. Besides, the “true CLP” value in series [7] (per replicate line) is 1B. In addition, the “true CLP” value in series [7] is 1B. Also, in series [3], the “GARD predicted CLP” value is 1B; the “predicted CLP” value is “no cat and 1B (2×)”. In addition, in series [8], the “binary class (HP*)” value is “S (HP 1-4 = S)”, the HP was 4 and the “Human potency [41]” value is 4. Moreover, the cytotox result in series [5] is “no”.

Take `CC(C)(O)CCCC1=CCC(C=O)CC1` (stereo not drawn) [lyral]: the CLP in series [7] (setting [9]) is 1B. The CLP in series [7] (Table 10, chemicals test set 1) is 1B. Also, in series [7] (setting [10]), the CLP is 1B and the binary class result is “sens”. For the same compound, in series [7] (per replicate line), the “true CLP” value was 1B. For the same compound, the “true CLP” value in series [7] is listed as 1B. In series [3], the “GARD predicted CLP” value is reported as 1A; the “predicted CLP” value is 1A (2×) and 1B. Further, in series [8], the “binary class (HP*)” value was “S (HP 1-4 = S)”, the HP is reported as 2 and the “Human potency [41]” value is listed as 2. In addition, the GARD binary prediction entry in series [4] is listed as “S”. For the same compound, the cytotox entry in series [5] is “yes”.

In the case of `CCCOC(=O)c1cc(O)c(O)c(O)c1` [propyl gallate], in series [7] (setting [9]), the CLP is reported as 1A. For the same compound, in series [7] (setting [10]), the CLP is 1A and the binary class result is given as “sens”. Besides, the “true CLP” value in series [7] (per replicate line) is 1A. In series [7], the “true CLP” value was 1A. In series [3], the “GARD predicted CLP” value is reported as 1A and the “predicted CLP” value is reported as 1A. Further, in series [8], the “binary class (HP*)” value was “S (HP 1-4 = S)”, the HP is given as 2 and the “Human potency [41]” value is on record as 2. Also, the GARD binary prediction entry in series [4] is “S”. In series [5], the cytotox result is “yes”.

These data come from patent publication US11324787B2, “Analytical methods and arrays for use in the same” (SENZAGEN AB, priority 2017, dated 2022).
